# According to PubChem BioAssay (NCI):
#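 Dose response: 5 concentrations. Exposure: 48 h. Format: 96-well plates. Endpoint: linear interpolation; highest concentration if not reached. TGI marks complete inhibition of growth.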
# Experiments:
# Experiment in all cases: DTP human tumour cell line panel, 48 h
# [1] = system: 786-0 renal
# [2] = system: A498 renal
# [3] = system: A549 NSCLC
# [4] = system: ACHN renal
# [5] = system: BT-549 breast
# [6] = system: CAKI-1 renal
# [7] = system: CCRF-CEM leukemia
# [8] = system: COLO 205 colon
# [9] = system: DU-145 prostate
# [10] = system: EKVX NSCLC
# [11] = system: HCC-2998 colon
# [12] = system: HCT-116 colon
# [13] = system: HCT-15 colon
# [14] = system: HL-60(TB) leukemia
# [15] = system: HOP-62 NSCLC
# [16] = system: HOP-92 NSCLC
# [17] = system: HS 578T breast
# [18] = system: HT29 colon
# [19] = system: IGROV1 ovarian
# [20] = system: K-562 leukemia
# [21] = system: KM12 colon
# [22] = system: LOX IMVI melanoma
# [23] = system: M14 melanoma
# [24] = system: MALME-3M melanoma
# [25] = system: MCF7 breast
# [26] = system: MDA-MB-231 breast
# [27] = system: MDA-MB-435
# [28] = system: MOLT-4 leukemia
# [29] = system: NCI-H226 lung
# [30] = system: NCI-H23 lung
# [31] = system: NCI-H460 lung
# [32] = system: NCI-H522 lung
# [33] = system: NCI/ADR-RES ovarian
# [34] = system: OVCAR-3 ovarian
# [35] = system: OVCAR-4 ovarian
# [36] = system: OVCAR-5 ovarian
# [37] = system: OVCAR-8 ovarian
# [38] = system: PC-3 prostate
# [39] = system: RPMI-8226 leukemia
# [40] = system: RXF 393 renal
# [41] = system: SF-268 CNS
# [42] = system: SF-295 CNS
# [43] = system: SF-539 CNS
# [44] = system: SK-MEL-2 melanoma
# [45] = system: SK-MEL-28 melanoma
# [46] = system: SK-MEL-5 melanoma
# [47] = system: SK-OV-3 ovarian
# [48] = system: SN12C renal
# [49] = system: SNB-19 CNS
# [50] = system: SNB-75 CNS
# [51] = system: SR leukemia
# [52] = system: SW-620 colon
# [53] = system: T-47D breast
# [54] = system: TK-10 renal
# [55] = system: U251 CNS
# [56] = system: UACC-257 melanoma
# [57] = system: UACC-62 melanoma
# [58] = system: UO-31 renal
structure (smiles),measurement,setting,value
Cc1ccc(SC2=C(N(C)C)C(=O)c3ccccc3C2=O)cc1,TGI,[1],> 32.2 µM
same,TGI,[2],50.3 µM
same,TGI,[3],30.2 µM
same,TGI,[4],21.4 µM
same,TGI,[5],26.6 µM
same,TGI,[6],9.73 µM
same,TGI,[7],17.5 µM
same,TGI,[8],51.5 µM
same,TGI,[9],23 µM
same,TGI,[10],20.1 µM
same,TGI,[11],32.4 µM
same,TGI,[12],7.26 µM
same,TGI,[13],> 39.9 µM
same,TGI,[14],16.9 µM
same,TGI,[15],23.6 µM
same,TGI,[16],18.3 µM
same,TGI,[17],> 27.6 µM
same,TGI,[18],31 µM
same,TGI,[19],17.6 µM
same,TGI,[20],7.68 µM
same,TGI,[21],16.4 µM
same,TGI,[22],24.6 µM
same,TGI,[23],16.4 µM
same,TGI,[24],18.4 µM
same,TGI,[25],17.5 µM
same,TGI,[26],20.1 µM
same,TGI,[27],1.22 µM
same,TGI,[28],12.4 µM
same,TGI,[29],25.8 µM
same,TGI,[30],10.4 µM
same,TGI,[31],18.5 µM
same,TGI,[32],10.5 µM
same,TGI,[33],6.35 µM
same,TGI,[34],2.96 µM
same,TGI,[35],24.8 µM
same,TGI,[36],40.3 µM
same,TGI,[37],6.44 µM
same,TGI,[38],18.7 µM
same,TGI,[39],11.7 µM
same,TGI,[40],20.8 µM
same,TGI,[41],18.4 µM
same,TGI,[42],25.6 µM
same,TGI,[43],9.71 µM
same,TGI,[44],23.5 µM
same,TGI,[45],25.8 µM
same,TGI,[46],8.6 µM
same,TGI,[47],41.9 µM
same,TGI,[48],16.6 µM
same,TGI,[49],29.6 µM
same,TGI,[50],43.5 µM
same,TGI,[51],3.84 µM
same,TGI,[52],16.1 µM
same,TGI,[53],> 38 µM
same,TGI,[54],21.6 µM
same,TGI,[55],23.7 µM
same,TGI,[56],15.6 µM
same,TGI,[57],17.8 µM
same,TGI,[58],21.9 µM
